# According to patent US20200339953A1, “HEMATOPOIETIC STEM AND PROGENITOR CELL THERAPY” (priority 2010, published 2020):
# How the values were obtained:
# CD34^+ cells = assay: Competitive cAMP assay (LANCE cAMP detection kit); type: cell-based, human
# Method: The cAMP assay was performed on CD34^+ cells using the LANCE® cAMP detection kit (Perkin Elmer Inc., Waltham, Mass.) according to the manufacturer's instructions. Briefly, 3,000 CD34^+ cells (Stem Cell Technologies, Vancouver, Canada) were aliquoted in each well of a 384-well opaque white plate in the recommended stimulation buffer. Assays were performed in triplicate for all conditions.
# CD34^+ cells were placed on ice prior to being stimulated with DMSO or 16,16-dimethyl PGE2 at 4° C. For assays conducted at other temperatures, e.g., 25° C. or 37° C., DMSO or 16,16-dimethyl PGE2 was added to CD34^+ cells at room temperature and then the plates were incubated with DMSO or 16,16-dmPGE2 at the experimental temperature (25° C. or 37° C.).
# CD34^+ cells were incubated for periods of 5, 15, 30, 60 or 120 minutes. Following the incubation period, detection buffer was added to the stimulated cells and cells were incubated for an additional 1 hour at room temperature in detection buffer, regardless of stimulation temperature. The assay plates were analyzed using an EnVision® 2104 Multilabel Reader (Perkin Elmer) according to the manufacturer's instructions.
# A competitive cAMP assay was performed using CD34^+ cells to determine the effects of time (incubation for 15, 30, 60, or 120 minutes), temperature (incubation at 4° C., 25° C., or 37° C.), and final 16,16-dimethyl PGE2 concentration (1 μM, 10 μM, 50 μM, or 100 μM) on cAMP production in the cells.
# human CD34^+ cells = assay: Microfluidic qPCR using the Fluidigm platform (signature genes of Table 3); type: cell-based; conditions: 37° C.
# Method: Real-time PCR transcript quantitation from 16,16-dimethyl PGE2 ex vivo treated CD34+ cell samples was performed using the BioMark Dynamic Array microfluidics system (Fluidigm Corporation, South San Francisco, Calif., USA). Total RNA was isolated from treated cells using Pico Pure RNA Isolation Kit (Molecular Devices, Sunnyvale, Calif., USA). Complimentary DNA (cDNA) was reverse transcribed from 50 ng of isolated total RNA using the High-Capacity cDNA Reverse Transcription Kit (Life Technologies Corporation, Carlsbad, Calif., USA).
# cDNA was pre-amplified for specific target genes (96) using a 200 nM mixture of 96 gene specific primer pairs (see Table 1), including 6 reference control genes using the TaqMan PreAmp Master Mix Kit (Life Technologies) protocol. Specific target amplification (STA) from cDNA was performed using 14 cycles of amplification with the standard cycling conditions using the manufacturer's protocol. EvaGreen dye (Biotium, Inc. Hayward, Calif., USA) was added according to Fluidigm's EvaGreen protocol to detect amplified products. For samples, the reaction mix contained 3.0 μL Gene Expression Master Mix (Life Tech.), 0.3 μL Sample Loading Buffer (Fluidigm), 0.3 μL 20× EvaGreen dye (Biotium, Inc.), 1.5 μL diluted (1:5 sterile nH2O) STA cDNA, and 0.9 μL sterile diH2O for loading into the sample inlets of the 96.96 Dynamic Array (Fluidigm).
# Samples were run in replicates, from 5 to 9 wells. For primer pairs, the reaction mix contained 2.5 μL Gene Specific Primer pairs (20 μM) and 2.5 μL Assay Loading Buffer (Fluidigm) for loading into the assay inlets on the 96.96 Dynamic Array (Fluidigm). 96.96 Dynamic arrays were loaded using a NanoFlex IFC Controller HX (Fluidigm) and real-time reactions were performed using a BioMark Real-Time PCR System (Fluidigm).
# Results were analyzed using BioMark Real-Time PCR Analysis software. Average Cts were calculated from the sample replicates and delta-delta Cts (ΔΔCt) were calculated using the mean of 6 reference genes (ACTB, GAPDH, HPRT1, QARS, ARPC2 and LRIG2) against a vehicle only sample. Cts above 28 or amplified products with inappropriate melting curve properties were excluded from the calculations.
# A microfluidic qPCR platform was also used to measure expression changes of a 16,16-dimethyl PGE2 gene expression signature of the genes listed in Table 3 in human CD34^+ cells at different incubation times.
# Further, gene expression signatures were measured on cells that received short pulse treatments with 16,16-dimethyl PGE2 followed by a recovery period in the absence of the drug. Human CD34^+ cells were incubated for different times in the presence of 16,16-dimethyl PGE2 followed by a wash and recovery period in media designed to reflect the in vivo setting. The experimental design matched the ex vivo treatment paradigm where cells are treated, washed to remove the drug and then administered to the patient. CD34^+ cells were incubated with 16,16-dimethyl PGE2 at 37° C. for 5, 15, 30, 60, or 120 minutes and the gene expression signatures were analyzed. For incubation periods less than 120 minutes, the cells were washed in media to remove the 16,16-dimethyl PGE2 and then the cells were incubated for the remaining period in media to allow time for gene expression to take place.
smiles,measurement,setting,value
"CCCCC(C)(C)[C@H](O)/C=C/[C@H]1[C@H](O)CC(=O)[C@@H]1C/C=C\CCCC(=O)O [16,16-dimethyl PGE2]",cAMP production compared to DMSO controls,"CD34^+ cells; 4° C., 1, 10, 50 and 100 μM, p>0.05",No statistically significant increase
same,time in which the cAMP response reached maximal levels,CD34^+ cells; 37° C.,15 min
same,cAMP activity compared to DMSO control,"CD34^+ cells; 37° C. and 25° C., 5 min up to 2 hours, 1, 10, 50 and 100 μM, p<0.001",statistically significant increase
same,threshold concentration above which the cAMP response was relatively dose-insensitive,CD34^+ cells; CD34+ cells,10 µM
same,incubation time of maximal cAMP response,"CD34^+ cells; CD34+ cells, FIG. 3",30 to 60 min
same,pulse incubation giving maximal gene expression changes,human CD34^+ cells; 10 μM,about 2 hours
same,constant exposure after which suitable gene expression signatures were detectable,"human CD34^+ cells; 10 μM, FIG. 14A",at least 60 minutes
same,constant exposure giving maximal gene expression response,"human CD34^+ cells; 10 μM, FIG. 14A-B",after at least about two hours
same,pulse incubation after which recognizable gene expression signatures were observed,"human CD34^+ cells; 10 μM, recovery to 120 minutes total",about 30 minutes
same,gene expression response to short pulse treatments (5-15 minutes),"human CD34^+ cells; 10 μM, recovery to 120 minutes total, FIGS. 15A-15B",not sufficient
same,concentration at which the gene expression signature was maximal,"human CD34^+ cells; 2 hours, FIGS. 16A-16B",10 µM
